The source of these data is patent publication US6127380A, “4-aminoalkoxy-1H-benzoimidazoles” (American Home Products Corporation, priority 1998, dated 2000).

Test [1] deals with T1, dopamine autoreceptor (D2) (Rattus norvegicus, UniProt P61169).
T1 construct: homogenized rat striatal brain tissue; from tissue; host or cells: rat striatum, homogenate
The test is described as follows: Affinity for the dopamine autoreceptor, 3H-quinpirole binding in homogenized rat striatal brain tissue (D2 Quin.). The procedure:
Affinity for the dopamine autoreceptor was established by a modification of the standard experimental test procedure of Seemen and Schaus, European Journal of Pharmacology 203: 105-109, 1991, wherein homogenized rat striatal brain tissue is incubated with ^3 H-quinpirole (Quin.) and various concentrations of test compound, filtered and washed and counted in a Betaplate scintillation counter.

In the next test the target is T2, dopamine D-2 receptor (Rattus norvegicus, UniProt P61169).
T2 construct: from tissue; host or cells: limbic brain tissue, homogenate
T2 sequence (P61169 whole entry): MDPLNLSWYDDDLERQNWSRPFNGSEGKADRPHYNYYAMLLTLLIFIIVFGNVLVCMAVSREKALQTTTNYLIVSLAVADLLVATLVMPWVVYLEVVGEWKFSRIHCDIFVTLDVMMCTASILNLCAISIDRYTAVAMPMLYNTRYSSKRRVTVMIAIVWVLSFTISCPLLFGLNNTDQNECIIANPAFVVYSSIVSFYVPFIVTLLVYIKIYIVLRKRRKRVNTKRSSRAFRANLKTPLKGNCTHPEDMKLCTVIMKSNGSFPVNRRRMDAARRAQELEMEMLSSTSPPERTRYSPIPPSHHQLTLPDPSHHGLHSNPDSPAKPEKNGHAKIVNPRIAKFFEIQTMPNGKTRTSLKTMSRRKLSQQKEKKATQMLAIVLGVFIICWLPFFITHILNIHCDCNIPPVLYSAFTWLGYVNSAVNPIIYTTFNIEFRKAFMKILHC
The test is described as follows: Affinity for the dopamine D-2 receptor, 3H-spiroperidol binding in homogenized limbic brain tissue (D2 Spiper). Particulars: for Ratio: IC50 D2 Spiper / IC50 D2 Quin. (LowAg/HighAg, predicts intrinsic activity). As to the method:
High affinity for the dopamine D-2 receptor was established by the standard experimental test procedure of Fields, et al., Brain Res., 136, 578 (1977) and Yamamura et al., eds., Neurotransmitter Receptor Binding, Raven Press, N.Y. (1978) wherein homogenized limbic brain tissue is incubated with ^3 H-spiroperidol (Spiper.) and various concentrations of test compound, filtered and washed and shaken with Hydrofluor scintillation cocktail (National Diagnostics) and counted in a Packard 460 CD scintillation counter.

[2] abbreviates: 3H-quinpirole, homogenized rat striatal brain tissue, read-out: IC50 (nM) D2 Quin.
Setting [3] is: 3H-spiroperidol, homogenized limbic brain tissue, read-out: IC50 (nM) D2 Spiper.

Where two headings read alike, the source gives them in different places.

T1 sequence (P61169 whole entry): as above

`Cc1ccc(CNCCOc2cccc3[nH]c(C(F)(F)C(F)(F)C(F)(F)F)nc23)cc1` [Example 12, (4-Methyl-benzyl)-{2-[2-(1,1,2,2,3,3,3-heptafluoro-propyl)-1H-benzoimidazol-4-yloxy]-ethyl}-amine]: the values for the half-maximal inhibitory concentration (IC50) (in test [1]; at dopamine D-2 receptor) were 5.12 nM and 118 nM, respectively. In addition, the Ratio at dopamine D-2 receptor was 23.0.

For the molecule `Cc1ccc(CNCCOc2cccc3[nH]c(C(F)(F)C(F)(F)F)nc23)cc1` [Example 6, (4-Methyl-benzyl)-{2-[2-(1,1,2,2,2-pentafluoro-ethyl)-1H-benzoimidazol-4-yloxy]-ethyl}-amine], the half-inhibitory concentration (IC50) (usually the point on the concentration scale where inhibition reaches its midpoint) in test [1] (setting [2]) worked out at 1.44 nM; at dopamine D-2 receptor (setting [3]), 66.5 nM. Moreover, the Ratio on dopamine D-2 receptor was 46.2.

With `FC(F)(F)c1nc2c(OCCNCc3ccccc3)cccc2[nH]1` [Example 3, Benzyl-[2-(2-trifluoromethyl-1H-benzoimidazol-4-yloxy)-ethyl]-amine], the IC50 in test [1] (setting [2]) was determined as 0.36 nM; at dopamine D-2 receptor (setting [3]) it was 23.7 nM. Further, the Ratio at dopamine D-2 receptor is 65.8.

`Cc1ccc(CNCCOc2cccc3[nH]c(C(F)(F)F)nc23)cc1` [Example 4, (4-Methyl-benzyl)-[2-(2-trifluoromethyl-1H-benzoimidazol-4-yloxy)-ethyl]-amine]: the figures for the half-maximal inhibitory concentration (IC50) (in test [1] (setting [2]); on dopamine D-2 receptor (setting [3])) were 0.74 nM and 29.9 nM, respectively. Further, the Ratio on dopamine D-2 receptor is 40.4.

On to `c1ccc(CNCCOc2cccc3nc[nH]c23)cc1` [Example 1, [2-(1H-Benzoimidazol-4-yloxy)-ethyl]-benzyl-amine], for which the IC50 in test [1] (setting [2]) came to 26.7 nM.

In the case of `FC(F)(F)c1nc2c(OCCNCc3cccc4ccccc34)cccc2[nH]1` [Example 10, Naphthalen-1-ylmethyl-[2-(2-trifluoromethyl-1H-benzoimidazol-4-yloxy]-ethyl]-amine], the figures for the IC50 (in test [1] (setting [2]); on dopamine D-2 receptor (setting [3])) were 0.86 nM and 81.5 nM, respectively. The Ratio on dopamine D-2 receptor is 94.8.

Consider `Cc1ccc(CNCCOc2cccc3[nH]c(Cc4ccccc4)nc23)cc1` [Example 5, [2-(2-Benzyl-1H-benzoimidazol-4-yloxy)-ethyl]-(4-methyl-benzyl)-amine], for which the half-inhibitory concentration (IC50) in test [1] (setting [2]) was found to be 54.8 nM; at dopamine D-2 receptor (setting [3]), 2160 nM. At dopamine D-2 receptor, the Ratio is listed as 39.4.

As to `FC(F)(F)c1nc2c(OCCCNCc3ccccc3)cccc2[nH]1` [Example 8, Benzyl-[3-(2-trifluoromethyl-1H-benzoimidazol-4-yloxy)-propyl]-amine], the values for the half-inhibitory concentration (IC50) (in test [1] (setting [2]); on dopamine D-2 receptor (setting [3])) were 86.8 nM and 1460 nM, respectively. In addition, the Ratio on dopamine D-2 receptor is 16.8.

Turning to `FC(F)(F)c1nc2c(OCCNCc3ccc(Cl)cc3)cc(Cl)cc2[nH]1` [Example 15, 4-Chloro-benzyl-[2-(6-chloro-2-trifluoromethyl-1H-benzoimidazol-4-yloxy)-ethyl]-amine], the IC50 came out at 7.77 nM in test [1] (setting [2]) and 395 nM on dopamine D-2 receptor (setting [3]). At dopamine D-2 receptor, the Ratio was 50.8.

Consider `Cc1nc2c(OCCNCc3ccccc3)cccc2[nH]1` [Example 2, Benzyl-[2-(2-methyl-1H-benzoimidazol-4-yloxy)-ethyl]-amine], for which the IC50 in test [1] (setting [2]) amounted to 8.85 nM; at dopamine D-2 receptor (setting [3]), 339 nM. Moreover, the Ratio on dopamine D-2 receptor is given as 38.3.

As to `Fc1ccc(CNCCOc2cccc3[nH]c(C(F)(F)F)nc23)cc1` [Example 16, (4-Fluoro-benzyl)-2[2-(2-trifluoromethyl-1H-benzoimidazol-4-yloxy)-ethyl]-amine], the IC50 in test [1] (setting [2]) was determined as 0.74 nM; at dopamine D-2 receptor (setting [3]), 49 nM. For the same molecule, the Ratio at dopamine D-2 receptor is on record as 66.2.

In the case of `FC(F)(F)c1ccc(CNCCOc2cccc3[nH]c(C(F)(F)F)nc23)cc1` [Example 17, [2-(2-Trifluoromethyl-1H-benzoimidazol-4-yloxy)-ethyl]-(4-trifluoromethyl-benzyl)-amine], the IC50 in test [1] (setting [2]) turned out to be 1.16 nM; at dopamine D-2 receptor (setting [3]) it was 87 nM. For the same molecule, the Ratio on dopamine D-2 receptor was 75.0.

As to `FC(F)(F)c1nc2c(OCCNCc3cccs3)cccc2[nH]1` [Example 7, Thiophen-2-ylmethyl-[2-(2-trifluoromethyl-1H-benzoimidazol-4-yloxy)-ethyl]-amine], the concentration for half-maximal inhibition (IC50) in test [1] (setting [2]) came out at 1.03 nM; at dopamine D-2 receptor (setting [3]), 37.4 nM. The Ratio at dopamine D-2 receptor is 36.3.

Turning to `FC(F)(F)C(F)(F)c1nc2c(OCCNCc3ccccc3)cccc2[nH]1` [Example 9, Benzyl-{2-[2-(1,1,2,2,2-pentafluoro-ethyl)-1H-benzoimidazol-4-yloxy]-ethyl}-amine], the half-maximal inhibitory concentration (IC50) in test [1] (setting [2]) worked out at 1.41 nM; on dopamine D-2 receptor (setting [3]) it was 41.9 nM. Also, the Ratio on dopamine D-2 receptor is 29.7.

`FC(F)(F)c1nc2c(OCCNCCCc3ccccc3)cccc2[nH]1` [Example 18, (3-Phenyl-propyl)-[2-(2-trifluoromethyl-1H-benzoimidazol-4-yloxy)-ethyl]-amine]: the concentration for half-maximal inhibition (IC50) in test [1] (setting [2]) was found to be 0.56 nM.

In the case of `c1csc(CNCCOc2cccc3[nH]cnc23)c1` [Example 11, Thiophen-2-ylmethyl-[2-(1H-benzoimidazol-4-yloxy)-ethyl]-amine], the 50% inhibitory concentration (IC50) in test [1] (setting [2]) is 52.8 nM.

For `FC(F)(F)c1nc2c(OCCNCc3ccccc3)cc(Cl)cc2[nH]1` [Example 14, Benzyl-[2-(6-chloro-2-trifluoromethyl-1H-benzoimidazol-4-yloxy)-ethyl]-amine], the IC50 in test [1] (setting [2]) is 1.42 nM; on dopamine D-2 receptor (setting [3]), 151 nM. Further, the Ratio on dopamine D-2 receptor is listed as 106.

Take `FC(F)(F)c1nc2c(OCCN3CCc4ccccc4C3)cccc2[nH]1` [Example 13]: the results for the 50% inhibitory concentration (IC50) (in test [1] (setting [2]); on dopamine D-2 receptor (setting [3])) were 8 nM and 314 nM, respectively. Moreover, the Ratio on dopamine D-2 receptor is reported as 39.4.
